Among the data in ChEMBL document CHEMBL5726083, “Perfluorinated cyclopropyl fused 1,3-oxazin-2-amine compounds as beta-secretase inhibitors and methods of use” (2017) are IC50 values, retold here.

The assay concerns the target Cathepsin D (Homo sapiens, UniProt P07339). Description: In Vitro Enzymatic FRET Assay: Recombinant Cat D was expressed in CHO cells. The assay buffer for CathepsinD is 0.05 M citrate pH 3.5, 10% DMSO final, 5 mM CHAPS. The Cat D enzyme (9 nM) is pre-incubated for one hour with inhibitors, typically in about 1 uL of DMSO according to a serial dilution, is added thereto. The assays are effectively started by the addition of different FRET substrates (20 nM for Cat D) and the combination is incubated for one hour. The FRET assay is terminated with by addition of Tris buffer, which raises the pH to neutrality, and the fluorescence is determined. The FRET substrate is a peptide with commercially available fluorophore and quencher, on opposite sides of the BACE cleavage site. […] Proteolytic cleavage of the FRET substrate releases quenching of fluorescence (Cat D excitation 500 nm and emission 580 nm). Type of assay: cell-based.

Chain of Cathepsin D (P07339 65-162 limits assumed): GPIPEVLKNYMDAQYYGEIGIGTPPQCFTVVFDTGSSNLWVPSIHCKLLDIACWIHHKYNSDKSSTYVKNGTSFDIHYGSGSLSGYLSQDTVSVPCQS
Chain of Cathepsin D (P07339 169-412 limits assumed): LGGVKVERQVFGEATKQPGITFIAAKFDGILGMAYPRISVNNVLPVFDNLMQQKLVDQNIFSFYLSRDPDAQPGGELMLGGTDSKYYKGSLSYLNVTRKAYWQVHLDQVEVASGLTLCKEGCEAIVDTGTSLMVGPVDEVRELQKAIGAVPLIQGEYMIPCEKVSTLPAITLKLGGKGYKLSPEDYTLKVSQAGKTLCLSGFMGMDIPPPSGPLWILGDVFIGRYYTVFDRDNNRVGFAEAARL

Broadly, the IC50 is the concentration needed to halve the response being measured. `NC1=N[C@](CF)(c2cc(NC(=O)c3ccc(Cl)cn3)cc(F)c2F)[C@H]2CC2O1` (mixture of isomers): the IC50 was 229 µM. The value for `Cc1cc(OC(F)F)cnc1C(=O)Nc1ccc(Cl)c(C2(C(F)F)N=C(N)O[C@@H]3C[C@@H]32)c1` (some centres not stated) was 958 µM.
